Measured values: the NIST ThermoML archive (doi:10.1021/je900124n)
“And” between values parts separate entries of the source, which are not always exact repeats. Equal entries are not always repeated.

Conditions: Fluid (supercritical or subcritical phases), Buoyancy - hydrostatic balance with magnetic suspension - two sinkers

CCC [propane]
Conditions | mass density
400 K, 11790 kPa | 357.33 kg/m3
400 K, 11791 kPa | 357.335 kg/m3 [middle of 4 runs]
400 K, 15926 kPa | 390.231 kg/m3 [middle of 6 runs]
400 K, 15927 kPa | 390.233 kg/m3
400 K, 17448 kPa | 398.971 kg/m3
400 K, 17449 kPa | 398.975 kg/m3
400 K, 17450 kPa | 398.984 kg/m3 and 398.981 kg/m3 and 398.978 kg/m3
400 K, 29918 kPa | 445.478 kg/m3
400 K, 29922 kPa | 445.491 kg/m3
400 K, 29927 kPa | 445.504 kg/m3
400 K, 29932 kPa | 445.516 kg/m3
400 K, 29938 kPa | 445.533 kg/m3
400 K, 35836 kPa | 460.067 kg/m3
400 K, 35844 kPa | 460.086 kg/m3
400 K, 35852 kPa | 460.105 kg/m3
400 K, 35860 kPa | 460.123 kg/m3
400 K, 35868 kPa | 460.142 kg/m3
400.01 K, 3901.8 kPa | 73.2154 kg/m3
400.01 K, 3902 kPa | 73.2198 kg/m3
400.01 K, 10112 kPa | 336.233 kg/m3 and 336.235 kg/m3 and 336.236 kg/m3
420 K, 352.46 kPa | 4.5346 kg/m3 and 4.5345 kg/m3 and 4.5347 kg/m3
420 K, 352.47 kPa | 4.5348 kg/m3
420 K, 629.66 kPa | 8.229 kg/m3
420 K, 629.67 kPa | 8.2291 kg/m3
420 K, 990.94 kPa | 13.2257 kg/m3
420 K, 991.11 kPa | 13.2302 kg/m3
420 K, 992.11 kPa | 13.2437 kg/m3
420 K, 993.37 kPa | 13.2618 kg/m3
420 K, 994.27 kPa | 13.2745 kg/m3
420 K, 1638.8 kPa | 22.7735 kg/m3 and 22.7726 kg/m3
420 K, 1639 kPa | 22.7748 kg/m3
420 K, 1639.4 kPa | 22.7815 kg/m3 and 22.7817 kg/m3
420 K, 2549.6 kPa | 37.6977 kg/m3
420 K, 2549.8 kPa | 37.6995 kg/m3 and 37.7007 kg/m3 and 37.7006 kg/m3
420 K, 3591.6 kPa | 57.6483 kg/m3
420 K, 3591.8 kPa | 57.649 kg/m3
420 K, 3592 kPa | 57.6554 kg/m3 and 57.6545 kg/m3
420 K, 3592.3 kPa | 57.6606 kg/m3
420 K, 4243.9 kPa | 72.25 kg/m3
420 K, 4244 kPa | 72.2514 kg/m3
420 K, 5253.6 kPa | 99.376 kg/m3 and 99.3762 kg/m3
420 K, 5253.7 kPa | 99.3774 kg/m3 and 99.3766 kg/m3 and 99.3783 kg/m3
420 K, 6605.8 kPa | 147.752 kg/m3
420 K, 6605.9 kPa | 147.756 kg/m3 and 147.757 kg/m3
420 K, 6606 kPa | 147.761 kg/m3 and 147.757 kg/m3
420 K, 6612.9 kPa | 148.072 kg/m3
420 K, 6613 kPa | 148.069 kg/m3
420 K, 6613.1 kPa | 148.07 kg/m3 and 148.073 kg/m3
420 K, 6613.2 kPa | 148.071 kg/m3
420 K, 6780.5 kPa | 155.128 kg/m3 and 155.129 kg/m3
420 K, 6780.6 kPa | 155.129 kg/m3 and 155.128 kg/m3
420 K, 7709.3 kPa | 196.595 kg/m3
420 K, 7709.5 kPa | 196.603 kg/m3
420 K, 7709.6 kPa | 196.603 kg/m3
420 K, 7709.7 kPa | 196.608 kg/m3 and 196.605 kg/m3 and 196.607 kg/m3
420 K, 7709.8 kPa | 196.607 kg/m3
420 K, 7709.9 kPa | 196.61 kg/m3
